Reference: patent US20240307345A1, “R-MDMA and S-MDMA TO ASSIST PSYCHOTHERAPY” (Universitatsspital Basel, priority 2022, published 2024)

How the values were obtained:
monkeys = details: cited from earlier work
prolactin (PRL) = details: preclinical research; cited from earlier work
mice [1] = details: cited from earlier work
healthy subjects [2] = assay: Acute subjective effects on the Visual Analog Scale (VAS); assay type: in vivo, human
Description: (§1) Study design: The present study compares the acute subjective, physiological and endocrine effects of S-MDMA (125 mg), R-MDMA (125 and 250 mg), MDMA (125 mg) using a placebo-controlled double-blind 5-period cross-over design in 24 healthy subjects. Conditions are 1.) R-MDMA 125 mg, 2). R-MDMA 250 mg, 3) S-MDMA 125 mg, 4) MDMA 125 mg, 5) placebo. Treatment order is counterbalanced. Washout periods between substance administrations are at least 10 days. Study days include a 10-hour study session with a subsequent single measurement (short visit) the next morning (24 hours after drug administration).
Study procedures: The study takes place at the University Hospital Basel. Each of the test sessions last from 8:00 until 18:00 with a short visit the next morning (24 hours after application). An indwelling intravenous catheter is inserted into a subcutaneous vein of the forearm and baseline psychometric measures are obtained. Administration of the substance is at 9:00. Outcome measures (see below) are repeatedly assessed during the study session. Subjects are under continuous medical supervision until any alterations of consciousness have completely subsided and they leave the research facility.
Psychometric assessments: Visual Analog Scale (VAS): VASs is repeatedly used to assess subjective alterations in consciousness over time. Single scales are presented as 100 mm horizontal lines marked with “not at all” on the left and “extremely” on the right. The following VAS items are used: “any drug effect”, “good drug effect”, “bad drug effect”, “stimulated”, “liking”, “happy”, “content”, “talkative”, “open”, “trust”, “feeling close to others”, “anxiety”, “alteration of vision”, “alterations of hearing”, “sounds seem to influence what I see”, “alteration of sense of time”, “the boundaries between myself and my surroundings seem to blur”, “want to be with other people”, and “want to be alone”. Scales are administered before and repeatedly after substance administration and take approximately 2 minutes to fill out. The maximal ratings (Emax, 0-100) and areas under the effect-time curve (AUEC) are defined for each VAS and Emax and AUEC values compared between treatments using analysis of variance. 5-Dimensions of Altered States of Consciousness (5D-ASC): The 5 Dimensions of Altered States of Consciousness (5D-ASC) Scale is a questionnaire containing visual analog scales for 94 items (Studerus et al., 2010). The instrument contains five scales assessing mood, anxiety, derealization, depersonalization, changes in perception, auditory alterations, and reduced vigilance. The scale is well-validated (Studerus et al., 2010) and used internationally to evaluate effects of many other psychoactive substances. The overall psychedelic experience is reflected by the total […] score. Each item of the scale is scored on a 0-100 mm VAS. The attribution of the individual items to the subscales of the 5D-ASC is analyzed according to (Studerus et al., 2010). The 5D-ASC scale is administered once at the end of the session and subjects are instructed to retrospectively rate peak alterations that have been experienced during the study session. Adiective Mood Rating Scale (AMRS): The Adjective Mood Rating Scale (AMRS or EWL60S) is a 60-item Likert scale that allows repeated assessment of mood in 6 dimensions: Activation, inactivation, well-being, anxiety/depressed mood, extra- and introversion, and emotional excitability. The German EWL60S version is used. The AMRS consists of subscales measuring “activation,” “positive mood,” “extraversion,” “introversion,” “inactivation,” and “emotional excitability. The scale has previously been used to evaluate effects of many other psychoactive substances. Emax and AUEC scores will be defined for each subscale and compared between treatments using analysis of variance. The AMRS is administered repeatedly throughout the study session and once 3 days after each session. […]

[3] = administered repeatedly at high doses; cited from earlier work
mice [4] = details: cited from earlier work; remark: listed apart in the source
animals = details: cited from earlier work
[5] = system: dopamine (DA), norepinephrine (NE), serotonin (5-HT), and oxytocin; details: preclinical research; cited from earlier work
humans = details: earlier human study; R-MDMA doses up to 200 mg; cited from earlier work
healthy subjects [6] = assay: Endocrine effects (plasma prolactin and cortisol); assay type: in vivo, human
Description: as §1
Endocrine effects: Cortisol and prolactin: Cortisol and prolactin are determined as biological markers of serotonergic activity (Seifritz et al., 1996). Plasma concentrations are determined by routine immune assays. Oxytocin and vasopressin: MDMA increase circulating oxytocin (Hysek et al., 2014a) and vasopressin or its precursor copeptin (Simmler et al., 2011). These neurohormones are thought to mediate neurocognitive and adverse effects of MDMA and the role of R-versus S-MDMA remains to be explored. Oxytocin and vasopressin plasma levels are measured before and after substance administration. Concentrations are determined using immunoassays.

rhesus monkeys [7] = details: indicative of abuse-liability; cited from earlier work
serotonin = details: rat, in vivo; cited from earlier work
rhesus monkeys [8] = details: cited from earlier work

CN[C@H](C)Cc1ccc2c(c1)OCO2 [R-MDMA, R(−)-MDMA]
peak effects on prosocial behaviors (monkeys): greater peak effects than S-MDMA
release of prolactin (PRL) (prolactin (PRL)): release prolactin
peak effects on prosocial behaviors (mice [1]): greater peak effects than S-MDMA
VAS Emax for “feeling high” (healthy subjects [2]; 250 mg R-MDMA compared with 125 mg (±)-MDMA, 24 subjects): lower Emax values
VAS “drug high”, “happy”, “content”, “talkative”, “open”, “trust” and “I feel close to others” (healthy subjects [2]; 250 mg R-MDMA versus (±)-MDMA and S-MDMA): lower effects

CN[C@@H](C)Cc1ccc2c(c1)OCO2 [S-MDMA, S(+)-MDMA]
neurotoxicity [3]: more neurotoxic than R-MDMA
lethal doses (mice [4]): similar
hyperthermia (animals): induced hyperthermia
release of dopamine (DA), norepinephrine (NE), serotonin (5-HT), and oxytocin [5]: mainly releases
activity in humans (humans): more active than the R-enantiomer
prolactin release (healthy subjects [6]; 125 mg S-MDMA compared to (±)-MDMA and 125 mg R-MDMA): increased more
cortisol release (healthy subjects [6]; 125 mg S-MDMA compared to (±)-MDMA and both doses of R-MDMA): increased cortisol release more
reinstatement of amphetamine responding (rhesus monkeys [7]): reinstated amphetamine responding
how much stimulated participants felt (healthy subjects [2]; 125 mg S-MDMA compared to (±)-MDMA): no significant difference
how much stimulated participants felt (healthy subjects [2]; 125 mg S-MDMA compared to both doses of R-MDMA): higher values
VAS Emax for “bad drug effects,” “alteration of vision” and “audio-visual synesthesia” (healthy subjects [2]; 125 mg S-MDMA compared with 125 mg (±)-MDMA, 24 subjects): higher Emax values
VAS items “alteration of vision” and “audio-visual synesthesia” (healthy subjects [2]; 125 mg S-MDMA compared with both R-MDMA doses and (±)-MDMA): higher increases
all VAS items except “fear” (healthy subjects [2]; 125 mg S-MDMA versus 250 mg R-MDMA): significant stronger effects
VAS “any drug effects”, “good drug effects”, “I like the effect”, “stimulation”, “alteration of time” and “ego dissolution” (healthy subjects [2]; 125 mg S-MDMA versus 125 and 250 mg R-MDMA): more than 125 and 250 mg R-MDMA
VAS “bad drug effects,” “alteration of vision” and “audio-visual synesthesia” (healthy subjects [2]; 125 mg S-MDMA versus (±)-MDMA and 250 mg R-MDMA): stronger
VAS “talkative,” “open,” “trust,” and “I feel close to others” (healthy subjects [2]; 125 mg, compared with both R-MDMA doses and placebo): higher values
feelings of “drug high” (healthy subjects [2]; S-MDMA compared with R-MDMA, abuse potential): greater
depleting serotonin (serotonin): more effective
potency to maintain self-administration (rhesus monkeys [8]): more potent than R-MDMA
